Columns and labels:
[1] = cited from earlier work
[2] = In vivo kinetics of FA incorporation and turnover in brain phospholipids (intravenous radiotracer infusion, kinetic model); set-up: species or system rat
Experimental: Twenty-four hours postsurgery, a second catheter (iv catheter 24 gauge/0.75 inch, Angiocath™; Becton Dickinson) was implanted into the tail vein where rats received either vehicle or 10 mg/kg of MEP. […] The radiotracers were infused for 5 min via the tail vein catheter at a rate of 0.223(1 + e^−19.2t) ml/min (t is infusion time in minutes) ([37]) which achieves a steady-state plasma radioactivity within 1 min ([18], [38]). […] During the 5 min infusion, blood samples were collected from the jugular vein at approximately 0, 0.25, 0.5, 0.75, 1.5, 3, 4, and 5 min while the unanesthetized rat was mobile in the infusion box with food and water. […] After 5 min, the rats were rapidly euthanized by head-focused high-energy microwave irradiation (13.5 kW for 1.6 s; Cober Electronics Inc., Stratford, CT). The radiotracer infusions continued until rats were euthanized. The brain was excised and cut sagittally. Both hemispheres were stored at −80°C for radioactive and biochemical analyses. Plasma was isolated from whole blood via microcentrifugation at 6,200 rpm (2,000 g) for 5 min and stored at −80°C.
The model for in vivo kinetics of brain FAs in rats has been previously described ([17], [18], [21], [23], [25], [37], [41]).
Because the infusion is 5 min, contributions of FA from de novo synthesis and esterified plasma FA are negligible ([18], [20], [23], [41]); thus only contributions from plasma unesterified FAs and acyl-CoA pools were considered in the calculation of λpalmitate, DHA, or EPA .

FFA rate of turnover ([2]; ChoGpl, MEP) | JFA net incorporation rate from brain acyl-CoA ([2]; ChoGpl, MEP) | Jin net incorporation rate from plasma unesterified FA ([2]; ChoGpl, MEP) | FFA rate of turnover ([2]; ChoGpl, Vehicle) | JFA net incorporation rate from brain acyl-CoA ([2]; ChoGpl, Vehicle) | Jin net incorporation rate from plasma unesterified FA ([2]; ChoGpl, Vehicle) | FFA rate of turnover ([2]; EtnGpl, MEP) | JFA net incorporation rate from brain acyl-CoA ([2]; EtnGpl, MEP) | Jin net incorporation rate from plasma unesterified FA ([2]; EtnGpl, MEP) | FFA rate of turnover ([2]; EtnGpl, Vehicle) | JFA net incorporation rate from brain acyl-CoA ([2]; EtnGpl, Vehicle) | Jin net incorporation rate from plasma unesterified FA ([2]; EtnGpl, Vehicle) | FFA rate of turnover ([2]; Total PL, MEP) | JFA net incorporation rate from brain acyl-CoA ([2]; Total PL, MEP) | Jin net incorporation rate from plasma unesterified FA ([2]; Total PL, MEP) | FFA rate of turnover ([2]; Total PL, Vehicle) | JFA net incorporation rate from brain acyl-CoA ([2]; Total PL, Vehicle) | Jin net incorporation rate from plasma unesterified FA ([2]; Total PL, Vehicle) | Compound | further results
 |  |  |  |  |  |  |  |  |  |  |  |  |  |  |  |  |  | CCCCC/C=C\C/C=C\C/C=C\C/C=C\CCCC(=O)O [ARA, arachidonic acid] | rate of loss from brain phospholipids [1]: 2 % per day
 |  |  |  |  |  |  |  |  |  |  |  |  |  |  |  |  |  | CC/C=C\C/C=C\C/C=C\C/C=C\C/C=C\C/C=C\CCC(=O)SCCNC(=O)CCNC(=O)[C@H](O)C(C)(C)COP(=O)(O)OP(=O)(O)OC[C@H]1O[C@@H](n2cnc3c(N)ncnc32)[C@H](O)[C@@H]1OP(=O)(O)O [DHA-CoA] | t1/2 half-life ([2]; Total PL, Vehicle): about 1 day; JFA into brain total phospholipids, fold higher than EPA-CoA ([2]; vehicle injection): 154 fold
0.070 ± 0.01 %/day | 0.98 ± 0.14 nmol/g/day | 0.23 ± 0.02 nmol/g/day | 0.30 ± 0.035 %/day | 3.8 ± 0.54 nmol/g/day | 0.46 ± 0.089 nmol/g/day | 0.054 ± 0.017 %/day | 3.1 ± 0.81 nmol/g/day | 0.71 ± 0.1 nmol/g/day | 0.13 ± 0.023 %/day | 7.6 ± 1.5 nmol/g/day | 0.92 ± 0.22 nmol/g/day | 0.022 ± 0.0035 %/day | 1.9 ± 0.3 nmol/g/day | 0.45 ± 0.044 nmol/g/day | 0.091 ± 0.0089 %/day | 7.9 ± 0.97 nmol/g/day | 1.0 ± 0.19 nmol/g/day | CC/C=C\C/C=C\C/C=C\C/C=C\C/C=C\C/C=C\CCC(=O)O [EPA→DHA] | 
178 ± 41 %/day | 6.2 ± 0.91 nmol/g/day | 1.4 ± 0.12 nmol/g/day | 192 ± 25 %/day | 6.5 ± 0.92 nmol/g/day | 0.79 ± 0.15 nmol/g/day | 153 ± 44 %/day | 13 ± 3.5 nmol/g/day | 3.0 ± 0.43 nmol/g/day | 147 ± 30 %/day | 12 ± 2.5 nmol/g/day | 1.5 ± 0.36 nmol/g/day | 149 ± 35 %/day | 21 ± 3.3 nmol/g/day | 5.0 ± 0.49 nmol/g/day | 123 ± 34 %/day | 18 ± 2.2 nmol/g/day | 2.2 ± 0.44 nmol/g/day | CC/C=C\C/C=C\C/C=C\C/C=C\C/C=C\CCCCCC(=O)O [EPA→n-3 DPA] | FFA rate of turnover ([2]; PtdIns, MEP): 260 ± 113 %/day; JFA net incorporation rate from brain acyl-CoA ([2]; PtdIns, MEP): 1.6 ± 0.77 nmol/g/day; Jin net incorporation rate from plasma unesterified FA ([2]; PtdIns, MEP): 0.39 ± 0.22 nmol/g/day; FFA rate of turnover ([2]; PtdIns, Vehicle): 336 ± 62 %/day; JFA net incorporation rate from brain acyl-CoA ([2]; PtdIns, Vehicle): 2.3 ± 0.1 nmol/g/day; Jin net incorporation rate from plasma unesterified FA ([2]; PtdIns, Vehicle): 0.27 ± 0.045 nmol/g/day; FFA rate of turnover ([2]; PtdSer, MEP): 20 ± 3.6 %/day; JFA net incorporation rate from brain acyl-CoA ([2]; PtdSer, MEP): 1.1 ± 0.11 nmol/g/day; Jin net incorporation rate from plasma unesterified FA ([2]; PtdSer, MEP): 0.25 ± 0.05 nmol/g/day; FFA rate of turnover ([2]; PtdSer, Vehicle): 31 ± 11 %/day; JFA net incorporation rate from brain acyl-CoA ([2]; PtdSer, Vehicle): 1.8 ± 0.45 nmol/g/day; Jin net incorporation rate from plasma unesterified FA ([2]; PtdSer, Vehicle): 0.21 ± 0.068 nmol/g/day

Source: PMC3735939, “The low levels of eicosapentaenoic acid in rat brain phospholipids are maintained via multiple redundant mechanisms” (Journal of Lipid Research, 2013)
